The target in this test is protein kinase. In words: HTS ATP-utilizing enzyme assay, off-chip mobility-shift format (Caliper HTS 250). The format is biochemical, human. The note with it: test compound 10 μM; for Kinase: kinase(s) for which the compound exhibits protein kinase inhibitory activity, active = greater than three-sigma from the mean activity of inactive compounds; for protein kinase against which the compound exhibits inhibitory activity (Table 3): active = activity greater than three-sigma from the mean of the predominately inactive population for that enzyme. The method, boiled down:
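Kinase reactions ran 2.5 h at 20 to 22 °C with test compound at 10 μM, in a HEPES pH 7.5 master buffer containing Triton X-100 and BSA. Peptide substrate and phosphorylated product separated by mobility shift; inhibition normalized to DMSO (0%) and EDTA (100%) controls, with three-sigma thresholds for hits.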

45 molecules from US20050288347A1, “Certain triazole-based compounds, compositions, and uses thereof” (priority 2004, published 2005) can be followed below.

Each structure is given as a SMILES string. “Also recorded” adds a separate entry of the source.

On to `O=C(CSc1nncn1-c1ccccn1)Nc1nccs1` [2-(4-(pyridin-2-yl)-4H-1,2,4-triazol-3-ylthio)-N-(thiazol-2-yl)acetamide], for which the Kinase entry is reported as “GSK3-α”.

As to `C=CCn1c(SCC(=O)O)nnc1-c1ccc([N+](=O)[O-])cc1` [2-(4-allyl-5-(4-nitrophenyl)-4H-1,2,4-triazol-3-ylthio)acetic acid], the Kinase entry was “GSK3-β”.

`COc1cc(NC(=O)CSc2nncn2N)cc(OC)c1` [2-(4-amino-4H-1,2,4-triazol-3-ylthio)-N-(3,5-dimethoxyphenyl)acetamide]: the Kinase result is recorded as “DYRK2”.

For `Oc1ccccc1-c1nnc(SCc2ccc(F)cc2)n1Cc1ccccc1` [2-(4-benzyl-5-(4-fluorobenzylthio)-4H-1,2,4-triazol-3-yl)phenol], the “protein kinase against which the compound exhibits inhibitory activity (Table 3)” value was “AURORA-A”.

For the molecule `N#CCSc1nnc(-c2ccc(O)cc2)n1Cc1ccccc1` [2-(4-benzyl-5-(4-hydroxyphenyl)-4H-1,2,4-triazol-3-ylthio)acetonitrile], the Kinase entry is recorded as “GSK3-β; also recorded: GSK3-α”.

With `CCc1ccc(OCc2nnc(SCC(=O)O)n2Cc2ccccc2)cc1` [2-(4-benzyl-5-((4-ethylphenoxy)methyl)-4H-1,2,4-triazol-3-ylthio)acetic acid], the Kinase entry was “AKT1”.

As for `N#CCSc1nnc(-c2cccnc2)n1Cc1ccccc1` [2-(4-benzyl-5-(pyridin-3-yl)-4H-1,2,4-triazol-3-ylthio)acetonitrile], the Kinase entry was “AURORA-A”.

`Cc1nnc(SC(C)C(=O)Nc2ccccc2)n1Cc1ccccc1` (stereo not drawn) [2-(4-benzyl-5-methyl-4H-1,2,4-triazol-3-ylthio)-N-phenylpropanamide]: the Kinase result was “PKA and DAPK1”.

With `CCn1c(SC(C)C(=O)Nc2ccccc2C)nnc1-c1ccc([N+](=O)[O-])cc1` (stereo not drawn) [2-(4-ethyl-5-(4-nitrophenyl)-4H-1,2,4-triazol-3-ylthio)-N-o-tolylpropanamide], the Kinase result is given as “DAPK1”.

Take `CCc1ccc(OCc2nnc(SCC#N)n2CC)cc1` [2-(4-ethyl-5-((4-ethylphenoxy)methyl)-4H-1,2,4-triazol-3-ylthio)acetonitrile]: the Kinase entry is “AURORA-A”.

Take `CCn1c(SCC(=O)c2ccccc2)nnc1-c1cccnc1` [2-(4-ethyl-5-(pyridin-3-yl)-4H-1,2,4-triazol-3-ylthio)-1-phenylethanone]: the Kinase result is recorded as “SYK”.

For `CCn1c(SC(C)C(=O)O)nnc1-c1cccnc1` (stereo not drawn) [2-(4-ethyl-5-(pyridin-3-yl)-4H-1,2,4-triazol-3-ylthio)propanoic acid], the Kinase entry is recorded as “LYNA”.

For `CCn1c(SCC(=O)Nc2ccccc2C)nnc1C(C)C` [2-(4-ethyl-5-isopropyl-4H-1,2,4-triazol-3-ylthio)-N-o-tolylacetamide], the Kinase entry is “PDGFRR-α”.

Regarding `CCn1c(SCC(=O)Nc2nccs2)nnc1-c1ccccc1` [2-(4-ethyl-5-phenyl-4H-1,2,4-triazol-3-ylthio)-N-(thiazol-2-yl)acetamide], the Kinase result is “GSK3-β; also recorded: GSK3-α; also recorded: CHEK2”.

`Cn1cnnc1SCC(=O)N1c2ccccc2Sc2ccccc21` [2-(4-methyl-4H-1,2,4-triazol-3-ylthio)-1-(10H-phenothiazin-10-yl)ethanone]: the Kinase result is “LCK”.

For the molecule `Cn1c(SCC(N)=O)nnc1-c1ccc([N+](=O)[O-])cc1` [2-(4-methyl-5-(4-nitrophenyl)-4H-1,2,4-triazol-3-ylthio)acetamide], the Kinase result is “PDGFRR-α and FYN”.

For `Cc1cccc(OCc2nnc(SC(C)C(=O)O)n2C)c1` (stereo not drawn) [2-(4-methyl-5-(m-tolyloxymethyl)-4H-1,2,4-triazol-3-ylthio)propanoic acid], the Kinase entry is recorded as “AURORA-A”.

For `Cc1ccc(OCc2nnc(SCC#N)n2C)cc1` [2-(4-methyl-5-(p-tolyloxymethyl)-4H-1,2,4-triazol-3-ylthio)acetonitrile], the Kinase result is recorded as “CSK”.

In the case of `CC(Sc1nnc(COc2ccccc2)n1C)C(=O)O` (stereo not drawn) [2-(4-methyl-5-(phenoxymethyl)-4H-1,2,4-triazol-3-ylthio)propanoic acid], the Kinase result was “AURORA-A”.

For `Cn1c(SCC(=O)c2ccccc2)nnc1-c1ccncc1` [2-(4-methyl-5-(pyridin-4-yl)-4H-1,2,4-triazol-3-ylthio)-1-phenylethanone], the Kinase entry was “PKA and MSK1 and AURORA-A”.

`Cn1c(SCC(N)=O)nnc1-c1ccncc1` [2-(4-methyl-5-(pyridin-4-yl)-4H-1,2,4-triazol-3-ylthio)acetamide]: the Kinase entry is listed as “AKT1”.

As to `Cc1ccc(OCc2nnc(SC(C)C(=O)O)n2-c2ccccc2)cc1` (stereo not drawn) [2-(4-phenyl-5-(p-tolyloxymethyl)-4H-1,2,4-triazol-3-ylthio)propanoic acid], the Kinase result is given as “AURORA-A”.

For `N#CCSc1nnc(-c2cccnc2)n1-c1ccccc1` [2-(4-phenyl-5-(pyridin-3-yl)-4H-1,2,4-triazol-3-ylthio)acetonitrile], the Kinase entry was “AURORA-A”.

As to `CC(Sc1nnc(-c2cccnc2)n1-c1ccccc1)C(=O)O` (stereo not drawn) [2-(4-phenyl-5-(pyridin-3-yl)-4H-1,2,4-triazol-3-ylthio)propanoic acid], the Kinase entry is “AURORA-A”.

For the molecule `O=C(CSc1nnc[nH]1)c1ccc(O)cc1O` [2-(4H-1,2,4-triazol-3-ylthio)-1-(2,4-dihydroxyphenyl)ethanone], the Kinase entry is “GSK3-α”.

Consider `O=C(CSc1nnc[nH]1)N1c2ccccc2Sc2ccccc21` [2-(4H-1,2,4-triazol-3-ylthio)-1-(10H-phenothiazin-10-yl)ethanone], for which the Kinase result is recorded as “LCK”.

Take `CSCCc1nnc(SCC(=O)O)[nH]1` [2-(5-(2-(methylthio)ethyl)-4H-1,2,4-triazol-3-ylthio)acetic acid]: the Kinase entry is on record as “GSK3-α; also recorded: GSK3-β”.

For `CSCCc1nnc(SCC#N)[nH]1` [2-(5-(2-(methylthio)ethyl)-4H-1,2,4-triazol-3-ylthio)acetonitrile], the Kinase result is reported as “GSK3-α”.

Consider `COc1ccccc1-n1c(SCc2ccccc2Cl)nnc1-c1ccccc1O` [2-(5-(2-chlorobenzylthio)-4-(2-methoxyphenyl)-4H-1,2,4-triazol-3-yl)phenol], for which the “protein kinase against which the compound exhibits inhibitory activity (Table 3)” value is “CDK2-cyclinA and PRAK”.

For the molecule `O=C(O)CSc1nnc(-c2ccc(Cl)c(Cl)c2)[nH]1` [2-(5-(3,4-dichlorophenyl)-4H-1,2,4-triazol-3-ylthio)acetic acid], the Kinase result is reported as “GSK3-α; also recorded: GSK3-B β; also recorded: AURORA-A”.

In the case of `OCCSc1nnc(-c2ccc(Cl)c(Cl)c2)[nH]1` [2-(5-(3,4-dichlorophenyl)-4H-1,2,4-triazol-3-ylthio)ethanol], the “protein kinase against which the compound exhibits inhibitory activity (Table 3)” value is “AURORA-A; also recorded: FLT-3; also recorded: CHEK2”.

As for `COc1ccc(-c2nnc(SCC(=O)O)n2-c2ccccc2)cc1OC` [2-(5-(3,4-dimethoxyphenyl)-4-phenyl-4H-1,2,4-triazol-3-ylthio)acetic acid], the Kinase entry is listed as “FYN”.

With `COc1ccccc1-n1c(SCCO)nnc1-c1cccc(Cl)c1` [2-(5-(3-chlorophenyl)-4-(2-methoxyphenyl)-4H-1,2,4-triazol-3-ylthio)ethanol], the “protein kinase against which the compound exhibits inhibitory activity (Table 3)” value is listed as “ROCK2”.

As for `NC(=O)CSc1nnc(-c2ccc(S(=O)(=O)N3CCCCC3)cc2)[nH]1` [2-(5-(4-(piperidin-1-ylsulfonyl)phenyl)-4H-1,2,4-triazol-3-ylthio)acetamide], the Kinase result is “GSK3-β; also recorded: AURORA-A; also recorded: GSK3-α”.

Turning to `O=C(O)CSc1nnc(-c2ccc(OC(F)(F)F)cc2)[nH]1` [2-(5-(4-(trifluoromethoxy)phenyl)-4H-1,2,4-triazol-3-ylthio)acetic acid], the Kinase entry was “GSK3-β; also recorded: GSK3-α; also recorded: DYRK2”.

On to `N#CCSc1nnc(-c2ccc(OC(F)(F)F)cc2)[nH]1` [2-(5-(4-(trifluoromethoxy)phenyl)-4H-1,2,4-triazol-3-ylthio)acetonitrile], for which the Kinase result was “DYRK2; also recorded: FLT-3; also recorded: AURORA-A”.

For the molecule `Cc1ccc(-n2c(SCC(=O)O)nnc2-c2ccc(Cl)cc2)cc1` [2-(5-(4-chlorophenyl)-4-p-tolyl-4H-1,2,4-triazol-3-ylthio)acetic acid], the Kinase result is “DAPK1 and AKT1”.

For `N#CCSc1nnc(-c2ccc(F)cc2)[nH]1` [2-(5-(4-fluorophenyl)-4H-1,2,4-triazol-3-ylthio)acetonitrile], the Kinase entry was “FLT-3; also recorded: DYRK2; also recorded: GSK3-β”.

As for `Cn1c(SCC(=O)O)nnc1-c1ccc(O)cc1` [2-(5-(4-hydroxyphenyl)-4-methyl-4H-1,2,4-triazol-3-ylthio)acetic acid], the Kinase entry was “GSK3-β; also recorded: MAPKAPK-2”.

Regarding `Cn1c(SCC#N)nnc1-c1ccc(O)cc1` [2-(5-(4-hydroxyphenyl)-4-methyl-4H-1,2,4-triazol-3-ylthio)acetonitrile], the Kinase result is given as “GSK3-β; also recorded: GSK3-α; also recorded: DAPK1”.

As to `NC(=O)CSc1nnc(-c2ccc(O)cc2)n1-c1ccccc1` [2-(5-(4-hydroxyphenyl)-4-phenyl-4H-1,2,4-triazol-3-ylthio)acetamide], the Kinase result was “GSK3-β and GSK3-α and INSR”.

For the molecule `O=C(O)CSc1nnc(-c2ccc(O)cc2)n1-c1ccccc1` [2-(5-(4-hydroxyphenyl)-4-phenyl-4H-1,2,4-triazol-3-ylthio)acetic acid], the Kinase result is recorded as “GSK3-β; also recorded: GSK3-α”.

For the molecule `COc1ccc(-c2nnc(SCC(N)=O)n2-c2ccccc2)cc1` [2-(5-(4-methoxyphenyl)-4-phenyl-4H-1,2,4-triazol-3-ylthio)acetamide], the Kinase result is recorded as “PDK1”.

For the molecule `COc1ccc(-c2nnc(SCC#N)[nH]2)cc1` [2-(5-(4-methoxyphenyl)-4H-1,2,4-triazol-3-ylthio)acetonitrile], the Kinase result is “FLT-3; also recorded: DYRK2; also recorded: AURORA-A”.

On to `Cc1ccc(-n2c(SCC(=O)O)nnc2-c2ccc([N+](=O)[O-])cc2)cc1` [2-(5-(4-nitrophenyl)-4-p-tolyl-4H-1,2,4-triazol-3-ylthio)acetic acid], for which the Kinase result is reported as “DAPK1”.
